Results from patent US20080181957A1, “INCREASED AMORPHOUS STABILITY OF POORLY WATER SOLUBLE DRUGS BY NANOSIZING” (priority 2006, published 2008).

Legend:
Assay type in all cases: physicochemical
[1] = Water solubility; conditions: 25 °C
Description: “Water solubility” means a measure of the maximum possible concentration of a drug dissolved in water. The water temperature may be specified; in an embodiment water solubility is determined at 25 Deg. C. Units of measurement of water solubility are typically mass/volume, such as mg/ml. […] C.; preferably less than or equal to about 0.1 mg/ml at 25 Deg. […] C.

[2] = DSC amorphous stability (recrystallization) on storage at 25 Deg C; conditions: FIG. 3; for crystallinity: DSC
Description: The amorphous state of the amorphous drug core is determined by subjecting a population of nanoparticles that comprise one or more nanoparticles that comprise the recited amorphous drug core to differential scanning calorimetry (DSC). In an embodiment, a DSC method according to the invention used a Perkin-Elmer DSC-7 or a Diamond DSC calorimeter applied for the measurement of specific transition temperatures of tested samples. Thus, the glass transition (Tg), melting (Tm) and crystallization (Tc) temperatures were measured for each sample, according to the PN-EN ISO 11357-1:2002 (ISO 11357-1:1997), ISO 11357-2:1999 and ISO 11357-3:1999 standards, at the rate of temperature change of 10 Deg C./min. The instrument was calibrated using indium, tin and zinc certified reference materials (CRMs)
The amorphous state of the amorphous drug core, as measured by DSC is expressed as a weight fraction of the weight of amorphous material in the amorphous drug core to the total weight of the amorphous drug core, expressed as an average value across the population of nanoparticles being measured. For instance, if a population of nanoparticles was measured using DSC, and the amorphous state was determined to be a particular value for the population, that value would be considered the average amorphous state for each nanoparticle within the population. An inventive amorphous drug core may contain a small amount of crystalline drug.
“Amorphous stability” means a measure of how much a material changes in its structure from being amorphous to being crystalline under defined conditions and a set timeframe. […] For instance, an amorphous material that is initially 98% w/w amorphous is considered amorphously stable according to the invention if, at the end of 6 months testing at 25 degree C., the material is at least 88% w/w amorphous. The amorphous state of a material according to the invention is determined using a DSC method as detailed above and elsewhere herein.

[3] = XRD amorphous stability of dried samples on storage; conditions: storage 3 month and 1 year, nanosized sample dried by lyophilization, FIGS. 1 and 2

Row | SMILES | solubility [1] | crystallinity ([2]; 4 month time point) | crystallinity ([2]; 5 month time point) | crystallinity ([2]; 6 month time point) | storage time after which recrystallization was detectable by DSC ([2]; storage at 25 Deg C) | XRD amorphous stability [3]
1 | O=C(NN1CCCCC1)c1nn(-c2ccc(Cl)cc2Cl)c2c1CCC/C2=C\c1ccc(F)cc1 [COMPOUND 1] | ≤ 0.2 ng/mL | – | – | – | – | –
2 | O=C(NN1CCCCC1)c1nn(-c2ccc(Cl)cc2Cl)c2c1CCC/C2=C\c1ccc(F)cc1 [bulk amorphous COMPOUND 1] | – | 0.44% | 1.39% | 10.54% | 4 month | XRD amorphous stability can be achieved up to 1 year
